Data: patent publication US10405547B2, “Substituted cyclic amides as herbicides” (FMC Corporation, priority 2015, dated 2019)

Key:
Assay type in all cases: in vivo
[1] = tested on: kochia (Kochia scoparia); test: Test A postemergence, kochia; details: 0 to 100 scale (0 no effect, 100 complete control)
Outline: (§1)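 Injury scores (0 no effect, 100 complete control) were assigned by visually comparing treated with untreated plants after about 10 days of greenhouse growth. Seeds for soil treatment were sown into a loam and sand blend, while plants for foliar treatment grew in pots of that same blend.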

[2] = tested on: barnyardgrass (Echinochloa crus-galli); test: Test A preemergence, barnyardgrass; details: 0 to 100 scale (0 no effect, 100 complete control)
Outline: as §1

[3] = tested on: pigweed (Amaranthus retroflexus); test: Test A preemergence, pigweed; details: 0 to 100 scale (0 no effect, 100 complete control)
Outline: as §1

[4] = tested on: corn (Zea mays); test: Test A postemergence, corn; details: 0 to 100 scale (0 no effect, 100 complete control)
Outline: as §1

[5] = tested on: galium (catchweed bedstraw, Galium aparine); test: Test A postemergence, galium; details: 0 to 100 scale (0 no effect, 100 complete control)
Outline: as §1

[6] = tested on: blackgrass (Alopecurus myosuroides); test: Test A postemergence, blackgrass; details: 0 to 100 scale (0 no effect, 100 complete control)
Outline: as §1

[7] = tested on: ragweed (common ragweed, Ambrosia elatior); test: Test A preemergence, ragweed; details: 0 to 100 scale (0 no effect, 100 complete control)
Outline: as §1

[8] = tested on: pigweed (Amaranthus retroflexus); test: Test A postemergence, pigweed; details: 0 to 100 scale (0 no effect, 100 complete control)
Outline: as §1

[9] = tested on: foxtail, giant (Setaria faberii); test: Test A preemergence, giant foxtail; details: 0 to 100 scale (0 no effect, 100 complete control)
Outline: as §1

[10] = tested on: barnyardgrass (Echinochloa crus-galli); test: Test A postemergence, barnyardgrass; details: 0 to 100 scale (0 no effect, 100 complete control)
Outline: as §1

[11] = tested on: barnyardgrass (Echinochloa crus-galli); test: Test B flooded paddy test, barnyardgrass; details: applied to paddy water, visual rating after 13 to 15 days, scale 0 (no effect) to 100 (complete control)
Outline: (§2)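 Under a constant 3 cm flood, test compounds went directly into the paddy water. Following 13 to 15 days of greenhouse growth, treated species and controls were compared by eye.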

[12] = tested on: ryegrass, Italian (Lolium multiflorum); test: Test A preemergence, Italian ryegrass; details: 0 to 100 scale (0 no effect, 100 complete control)
Outline: as §1

[13] = tested on: ryegrass, Italian (Lolium multiflorum); test: Test A postemergence, Italian ryegrass; details: 0 to 100 scale (0 no effect, 100 complete control)
Outline: as §1

[14] = tested on: wheat (Triticum aestivum); test: Test A postemergence, wheat; details: 0 to 100 scale (0 no effect, 100 complete control)
Outline: as §1

[15] = tested on: kochia (Kochia scoparia); test: Test A preemergence, kochia; details: 0 to 100 scale (0 no effect, 100 complete control)
Outline: as §1

[16] = tested on: ragweed (common ragweed, Ambrosia elatior); test: Test A postemergence, ragweed; details: 0 to 100 scale (0 no effect, 100 complete control)
Outline: as §1

[17] = tested on: sedge, umbrella (small-flower umbrella sedge, Cyperus difformis); test: Test B flooded paddy test, umbrella sedge; details: applied to paddy water, visual rating after 13 to 15 days, scale 0 (no effect) to 100 (complete control)
Outline: as §2

[18] = tested on: rice (Oryza sativa); test: Test B flooded paddy test, rice; details: applied to paddy water, visual rating after 13 to 15 days, scale 0 (no effect) to 100 (complete control)
Outline: as §2

[19] = tested on: ducksalad (Heteranthera limosa); test: Test B flooded paddy test, ducksalad; details: applied to paddy water, visual rating after 13 to 15 days, scale 0 (no effect) to 100 (complete control)
Outline: as §2

[20] = tested on: foxtail, giant (Setaria faberii); test: Test A postemergence, giant foxtail; details: 0 to 100 scale (0 no effect, 100 complete control)
Outline: as §1

[21] = 125 g ai/ha, visual injury, approximately 10 days
[22] = 500 g ai/ha, visual injury, approximately 10 days

Row | SMILES | Plant response rating, Kochia [1, 21] | Plant response rating, Barnyardgrass ([2]; 125 g ai/ha) | Plant response rating, Pigweed ([3]; 125 g ai/ha) | Plant response rating, Corn [4, 21] | Plant response rating, Galium [5, 21] | Plant response rating, Blackgrass [6, 21] | Plant response rating, Ragweed ([7]; 125 g ai/ha) | Plant response rating, Pigweed [8, 21] | Plant response rating, Foxtail, Giant ([9]; 125 g ai/ha) | Plant response rating, Barnyardgrass [10, 21] | Plant response rating, Barnyardgrass (Flood) ([11]; 250 g ai/ha) | Plant response rating, Ryegrass, Italian ([12]; 125 g ai/ha) | Plant response rating, Ryegrass, Italian [13, 21] | Plant response rating, Wheat [14, 21] | Plant response rating, Kochia ([15]; 125 g ai/ha) | Plant response rating, Ragweed [16, 21] | Plant response rating, Sedge, Umbrella (Flood) ([17]; 250 g ai/ha) | Plant response rating, Rice (Flood) ([18]; 250 g ai/ha) | Plant response rating, Ducksalad (Flood) ([19]; 250 g ai/ha) | Plant response rating, Foxtail, Giant [20, 21] | further results
1 | CN1C[C@H](c2cccc(Oc3ccc(F)cn3)c2)[C@@H](C(=O)Nc2ccc(F)c(F)c2F)C1=O [Compound 87, (3S,4S)-4-[3-[(5-fluoro-2-pyridinyl)oxy]phenyl]-1-methyl-2-oxo-N-(2,3,4-trifluorophenyl)-3-pyrrolidinecarboxamide] | 30 | 90 | 70 | 90 | 60 | 60 | 0 | 70 | 90 | 80 | 60 | 80 | 70 | 40 | 60 | 0 | 0 | 0 | 85 | 80 | Plant response rating, Kochia ([1]; 31 g ai/ha): 0; Plant response rating, Barnyardgrass ([2]; 31 g ai/ha): 60; Plant response rating, Pigweed ([3]; 31 g ai/ha): 70; Plant response rating, Corn ([4]; 31 g ai/ha): 60; Plant response rating, Galium ([5]; 31 g ai/ha): 30; Plant response rating, Blackgrass ([6]; 31 g ai/ha): 30; Plant response rating, Ragweed ([7]; 31 g ai/ha): 0; Plant response rating, Pigweed ([8]; 31 g ai/ha): 0; Plant response rating, Foxtail, Giant ([9]; 31 g ai/ha): 90; Plant response rating, Barnyardgrass ([10]; 31 g ai/ha): 50; Plant response rating, Ryegrass, Italian ([12]; 31 g ai/ha): 0; Plant response rating, Ryegrass, Italian ([13]; 31 g ai/ha): 40; Plant response rating, Wheat ([14]; 31 g ai/ha): 0; Plant response rating, Kochia ([15]; 31 g ai/ha): 0; Plant response rating, Ragweed ([16]; 31 g ai/ha): 0; Plant response rating, Foxtail, Giant ([20]; 31 g ai/ha): 70
2 | CN1CC(c2cccc(Oc3ccc(F)cn3)c2)C(C(=O)Nc2cccc(F)c2C#N)C1=O (single isomer, unassigned) [Compound 89] | 0 | 70 | 60 | 0 | 40 | 20 | 0 | 50 | 90 | 70 | 0 | 40 | 20 | 0 | 0 | 0 | 0 | 0 | 70 | 70 | Plant response rating, Kochia ([1]; 31 g ai/ha): 0; Plant response rating, Barnyardgrass ([2]; 31 g ai/ha): 30; Plant response rating, Pigweed ([3]; 31 g ai/ha): 0; Plant response rating, Corn ([4]; 31 g ai/ha): 0; Plant response rating, Galium ([5]; 31 g ai/ha): 30; Plant response rating, Blackgrass ([6]; 31 g ai/ha): 0; Plant response rating, Ragweed ([7]; 31 g ai/ha): 0; Plant response rating, Pigweed ([8]; 31 g ai/ha): 0; Plant response rating, Foxtail, Giant ([9]; 31 g ai/ha): 40; Plant response rating, Barnyardgrass ([10]; 31 g ai/ha): 30; Plant response rating, Ryegrass, Italian ([12]; 31 g ai/ha): 0; Plant response rating, Ryegrass, Italian ([13]; 31 g ai/ha): 0; Plant response rating, Wheat ([14]; 31 g ai/ha): 0; Plant response rating, Kochia ([15]; 31 g ai/ha): 0; Plant response rating, Ragweed ([16]; 31 g ai/ha): 0; Plant response rating, Foxtail, Giant ([20]; 31 g ai/ha): 30
3 | O=C1NCC(c2cccc(Oc3ccccn3)c2)C1C(=O)Nc1ccc(F)c(F)c1F (stereo not drawn) [Compound 42] | 0 | 40 | 0 | 0 | 0 | 0 | 0 | 0 | 80 | 40 |  | 0 | 0 | 0 | 0 | 0 |  |  |  | 50 | Plant response rating, Kochia [1, 22]: 0; Plant response rating, Barnyardgrass ([2]; 500 g ai/ha): 80; Plant response rating, Pigweed ([3]; 500 g ai/ha): 10; Plant response rating, Corn [4, 22]: 0; Plant response rating, Galium [5, 22]: 30; Plant response rating, Blackgrass [6, 22]: 0; Plant response rating, Ragweed ([7]; 500 g ai/ha): 0; Plant response rating, Pigweed [8, 22]: 0; Plant response rating, Foxtail, Giant ([9]; 500 g ai/ha): 90; Plant response rating, Barnyardgrass [10, 22]: 60; Plant response rating, Barnyardgrass (Flood) ([11]; 500 g ai/ha): 0; Plant response rating, Ryegrass, Italian ([12]; 500 g ai/ha): 0; Plant response rating, Ryegrass, Italian [13, 22]: 0; Plant response rating, Wheat [14, 22]: 0; Plant response rating, Kochia ([15]; 500 g ai/ha): 0; Plant response rating, Ragweed [16, 22]: 0; Plant response rating, Sedge, Umbrella (Flood) ([17]; 500 g ai/ha): 0; Plant response rating, Rice (Flood) ([18]; 500 g ai/ha): 0; Plant response rating, Ducksalad (Flood) ([19]; 500 g ai/ha): 80; Plant response rating, Foxtail, Giant [20, 22]: 70
4 | CN1CC(c2cccc(Oc3ccc(F)cc3)c2)C(C(=O)Nc2cccc(F)c2F)C1=O (single isomer, unassigned) [Compound 46] | 40 | 70 | 40 | 40 | 60 | 0 | 0 | 50 | 90 | 90 | 0 | 20 | 0 | 0 | 0 | 0 | 0 | 0 | 30 | 70 | Plant response rating, Kochia [1, 22]: 60; Plant response rating, Barnyardgrass ([2]; 500 g ai/ha): 80; Plant response rating, Pigweed ([3]; 500 g ai/ha): 70; Plant response rating, Corn [4, 22]: 50; Plant response rating, Galium [5, 22]: 70; Plant response rating, Blackgrass [6, 22]: 30; Plant response rating, Ragweed ([7]; 500 g ai/ha): 30; Plant response rating, Pigweed [8, 22]: 70; Plant response rating, Foxtail, Giant ([9]; 500 g ai/ha): 90; Plant response rating, Barnyardgrass [10, 22]: 90; Plant response rating, Ryegrass, Italian ([12]; 500 g ai/ha): 80; Plant response rating, Ryegrass, Italian [13, 22]: 30; Plant response rating, Wheat [14, 22]: 20; Plant response rating, Kochia ([15]; 500 g ai/ha): 20; Plant response rating, Ragweed [16, 22]: 0; Plant response rating, Foxtail, Giant [20, 22]: 80
